Patent publication US20240383915A1, “OXAZEPINE COMPOUNDS AND USES THEREOF IN THE TREATMENT OF CANCER” (Genentech, Inc., priority 2021, published 2024)
Where two headings read alike, the source gives them in different places.

Columns and labels:
SW480 cells = experiment: SW480 proliferation assay; type: cell-based; conditions: read-out: SW480 Prolif IC50 (G12V)
PC-9 cells = experiment: PC9 proliferation assay; type: cell-based, human; conditions: read-out: PC9 Prolif IC50 (G12V)
KRas(G12V) = KRas(G12V) (Homo sapiens (Human), UniProt P01116, G12V); experiment: KRas(G12V) GDP HTRF (BODIPY-GDP exchange TR-FRET); type: biochemical
KRas = KRas (Homo sapiens (Human), UniProt P01116); experiment: KRas GDP HTRF (BODIPY-GDP exchange TR-FRET); type: biochemical
Summary of the method: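 Inhibition of SOS1-mediated exchange of BODIPY-GDP on KRAS G12D, started with 3 nM recombinant human SOS1 and 300 nM BODIPY-GDP and read after 60 min. TR-FRET excitation 337 nm, ratio 520/490 nm ×10,000. IC50 from 4-parameter Hill fit of normalized data.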

KRas(G12V), sequence (P01116-2 other isoform, or with tags, fused parts or gaps G12V): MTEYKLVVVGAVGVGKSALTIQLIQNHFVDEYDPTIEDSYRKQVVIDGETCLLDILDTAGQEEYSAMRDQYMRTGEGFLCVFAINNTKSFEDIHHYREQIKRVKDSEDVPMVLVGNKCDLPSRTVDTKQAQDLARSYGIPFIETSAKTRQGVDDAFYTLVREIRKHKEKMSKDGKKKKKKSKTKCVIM
KRas, sequence (P01116-2 other isoform, or with tags, fused parts or gaps): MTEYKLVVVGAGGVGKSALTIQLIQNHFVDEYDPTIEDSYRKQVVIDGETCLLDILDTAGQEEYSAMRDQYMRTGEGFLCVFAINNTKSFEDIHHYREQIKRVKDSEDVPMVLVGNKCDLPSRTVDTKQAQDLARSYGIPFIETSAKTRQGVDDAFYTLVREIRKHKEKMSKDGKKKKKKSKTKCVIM

SMILES | IC50 (SW480 cells; Homo sapiens, SW480, SW480) [nM] | IC50 (PC-9 cells; Homo sapiens, PC-9, PC9) [nM] | IC50 (KRas(G12V)) [nM] | IC50 (KRas) [nM] | IC50 (SW480 cells; SW480) [nM] | IC50 (PC-9 cells; PC9) [nM]
Cc1cc(N)nc(-c2c(Cl)c3c4c(nc(OCC5COCCN5C)nc4c2F)N([C@H](C)c2cccnc2N)CCO3)c1C(F)(F)F (stereo partly drawn) [Example 140, 6-((9R)-4-((R)-1-(2-aminopyridin-3-yl)ethyl)-8-chloro-10-fluoro-2-((4-methylmorpholin-3-yl)methoxy)-5,6-dihydro-4H-[1,4]oxazepino[5,6,7-de]quinazolin-9-yl)-4-methyl-5-(trifluoromethyl)pyridin-2-amine] | 51 | 3800 | 0.17 | 0.6 | – | –
Cc1cc(N)nc(-c2c(Cl)c3c4c(nc(OCCO)nc4c2F)N([C@H](C)c2cccnc2N)CCO3)c1C(F)(F)F (atropisomer, axis not shown) [Example 156, 2-(((R)-9-(6-amino-4-methyl-3-(trifluoromethyl)pyridin-2-yl)-4-((R)-1-(2-aminopyridin-3-yl)ethyl)-8-chloro-10-fluoro-5,6-dihydro-4H-[1,4]oxazepino[5,6,7-de]quinazolin-2-yl)oxy)ethan-1-ol] | 310 | 16000 | 0.19 | 0.65 | – | –
Cc1cc(N)nc(-c2c(Cl)c3c4c(nc(OC[C@H]5CC[C@@H]6COCCCN65)nc4c2F)N([C@H](C)c2cccnc2N)CCO3)c1C(F)(F)F (atropisomer, axis not shown; (aR)) [Example 120b, 6-((R)-4-((R)-1-(2-aminopyridin-3-yl)ethyl)-8-chloro-10-fluoro-2-(((7R,9aR)-hexahydro-1H,3H-pyrrolo[2,1-c][1,4]oxazepin-7-yl)methoxy)-5,6-dihydro-4H-[1,4]oxazepino[5,6,7-de]quinazolin-9-yl)-4-methyl-5-(trifluoromethyl)pyridin-2-amine] | 20 | 3000 | 0.08 | 0.2 | – | –
Cc1cc(N)nc(-c2c(Cl)c3c4c(nc(OC[C@@H]5C[C@@H]6C[N@@]5CCO6)nc4c2F)N([C@H](C)c2cccnc2N)CCO3)c1C(F)(F)F (atropisomer, axis not shown) [Example 92a, 6-((R)-2-(((1R,5R,7S)-4-oxa-1-azabicyclo[3.2.1]octan-7-yl)methoxy)-4-((R)-1-(2-aminopyridin-3-yl)ethyl)-8-chloro-10-fluoro-5,6-dihydro-4H-[1,4]oxazepino[5,6,7-de]quinazolin-9-yl)-4-methyl-5-(trifluoromethyl)pyridin-2-amine] | 37 | 1800 | 0.07 | 0.0648 | – | –
Cc1cc(N)nc(-c2cc3nc(OC[C@@]45CCCN4CC4(C5)OCCO4)nc4c3c(c2Cl)OCCN4Cc2cccnc2N)c1C(F)(F)F [Example 35, (S)-6-(4-((2-aminopyridin-3-yl)methyl)-8-chloro-2-((dihydro-1H,3H-spiro[pyrrolizine-2,2′-[1,3]dioxolan]-7a(5H)-yl)methoxy)-5,6-dihydro-4H-[1,4]oxazepino[5,6,7-de]quinazolin-9-yl)-4-methyl-5-(trifluoromethyl)pyridin-2-amine] | 780 | 1700 | 0.39 | 0.63 | – | –
Cc1cc(N)nc(-c2c(Cl)c3c4c(nc(OC[C@@H]5CC(F)(F)CN5C)nc4c2F)N([C@H](C)c2cncnc2N)CCO3)c1C(F)(F)F (atropisomer, axis not shown) [Example 83a, 5-((R)-1-((R)-9-(6-amino-4-methyl-3-(trifluoromethyl)pyridin-2-yl)-8-chloro-2-(((S)-4,4-difluoro-1-methylpyrrolidin-2-yl)methoxy)-10-fluoro-5,6-dihydro-4H-[1,4]oxazepino[5,6,7-de]quinazolin-4-yl)ethyl)pyrimidin-4-amine] | 23 | 5900 | 0.19 | 0.684 | – | –
Cc1cc(N)nc(-c2c(Cl)c3c4c(nc(OC[C@@]56CCCN5C[C@H](F)C6)nc4c2F)N(Cc2cccnc2N)CCO3)c1C(F)(F)F (single isomer, unassigned) [Example 42a] | – | – | 0.3 | 0.25 | 85 | 1300
Cc1cc(N)nc(-c2c(Cl)c3c4c(nc(OCC56CCC(CC5)OC6)nc4c2F)N([C@H](C)c2cccnc2N)CCO3)c1C(F)(F)F [Example 157, 6-((R)-2-((2-oxabicyclo[2.2.2]octan-4-yl)methoxy)-4-((R)-1-(2-aminopyridin-3-yl)ethyl)-8-chloro-10-fluoro-5,6-dihydro-4H-[1,4]oxazepino[5,6,7-de]quinazolin-9-yl)-4-methyl-5-(trifluoromethyl)pyridin-2-amine] | 400 | 8200 | 0.81 | 3.2 | – | –
Cc1cc(N)nc(-c2c(Cl)c3c4c(nc(OC[C@@]56CCCN5C[C@H](F)C6)nc4c2F)N([C@@H](C)c2nccnc2N)CCO3)c1C(F)(F)F (atropisomer, axis not shown; (aS)) [Example 80, 3-((S)-1-((R)-9-(6-amino-4-methyl-3-(trifluoromethyl)pyridin-2-yl)-8-chloro-10-fluoro-2-(((2R,7aS)-2-fluorotetrahydro-1H-pyrrolizin-7a(5H)-yl)methoxy)-5,6-dihydro-4H-[1,4]oxazepino[5,6,7-de]quinazolin-4-yl)ethyl)pyrazin-2-amine] | 940 | 1200 | 8.2 | 23.6 | – | –
Cc1cc(N)nc(-c2c(Cl)c3c4c(nc(OC[C@@]56CCCN5C[C@H](F)C6)nc4c2F)N([C@H](C)c2nccnc2N)CCO3)c1C(F)(F)F (atropisomer, axis not shown; (aS)) [Example 101, 3-((R)-1-((R)-9-(6-amino-4-methyl-3-(trifluoromethyl)pyridin-2-yl)-8-chloro-10-fluoro-2-(((2R,7aS)-2-fluorotetrahydro-1H-pyrrolizin-7a(5H)-yl)methoxy)-5,6-dihydro-4H-[1,4]oxazepino[5,6,7-de]quinazolin-4-yl)ethyl)pyrazin-2-amine] | 5.7 | 830 | 0.06 | 0.0616 | – | –
Cc1cc(N)nc(-c2c(Cl)c3c4c(nc(OCC5(C#N)CCOCC5)nc4c2F)N([C@H](C)c2cccnc2N)CCO3)c1C(F)(F)F (atropisomer, axis not shown) [Example 142, 4-((((R)-9-(6-amino-4-methyl-3-(trifluoromethyl)pyridin-2-yl)-4-((R)-1-(2-aminopyridin-3-yl)ethyl)-8-chloro-10-fluoro-5,6-dihydro-4H-[1,4]oxazepino[5,6,7-de]quinazolin-2-yl)oxy)methyl)tetrahydro-2H-pyran-4-carbonitrile] | 120 | 7700 | 0.31 | 1.1 | – | –
Cc1cc(N)nc(-c2c(Cl)c3c4c(nc(OC[C@@H]5CCCN5CC(F)F)nc4c2F)N([C@H](C)c2cccnc2N)CCO3)c1C(F)(F)F (atropisomer, axis not shown) [Example 115, 6-((R)-4-((R)-1-(2-aminopyridin-3-yl)ethyl)-8-chloro-2-(((S)-1-(2,2-difluoroethyl)pyrrolidin-2-yl)methoxy)-10-fluoro-5,6-dihydro-4H-[1,4]oxazepino[5,6,7-de]quinazolin-9-yl)-4-methyl-5-(trifluoromethyl)pyridin-2-amine] | 16 | 15000 | 0.47 | 0.9 | – | –
Cc1cc(N)c(F)c(-c2c(Cl)c3c4c(nc(OC[C@@]56CCCN5C[C@H](F)C6)nc4c2F)N([C@H](C)c2cccnc2N)CCO3)c1I (single isomer, unassigned) [Example 74a] | 6 | 2900 | 0.09 | 0.21 | – | –
Cc1cc(N)nc(-c2c(Cl)c3c4c(nc(OC[C@@H]5CCN5CC(F)F)nc4c2F)N([C@H](C)c2cncnc2N)CCO3)c1C(F)(F)F (atropisomer, axis not shown) [Example 84a, 5-((R)-1-((R)-9-(6-amino-4-methyl-3-(trifluoromethyl)pyridin-2-yl)-8-chloro-2-(((S)-1-(2,2-difluoroethyl)azetidin-2-yl)methoxy)-10-fluoro-5,6-dihydro-4H-[1,4]oxazepino[5,6,7-de]quinazolin-4-yl)ethyl)pyrimidin-4-amine] | 73 | 12000 | 0.14 | 0.389 | – | –
Cc1cc(N)nc(-c2c(Cl)c3c4c(nc(OC[C@H]5CN(C)CCO5)nc4c2F)N([C@H](C)c2cccnc2N)CCO3)c1C(F)(F)F (atropisomer, axis not shown) [Example 124, 6-((R)-4-((R)-1-(2-aminopyridin-3-yl)ethyl)-8-chloro-10-fluoro-2-(((R)-4-methylmorpholin-2-yl)methoxy)-5,6-dihydro-4H-[1,4]oxazepino[5,6,7-de]quinazolin-9-yl)-4-methyl-5-(trifluoromethyl)pyridin-2-amine] | 70 | 2700 | 0.1 | 0.204 | – | –
Cc1cc(N)nc(-c2c(Cl)c3c4c(nc(OC[C@@H]5CC[C@H]6COCCN65)nc4c2F)N([C@H](C)c2cccnc2N)CCO3)c1C(F)(F)F (atropisomer, axis not shown; (aS)) [Example 87a, 6-((R)-4-((R)-1-(2-aminopyridin-3-yl)ethyl)-8-chloro-10-fluoro-2-(((6S,8aS)-hexahydro-1H-pyrrolo[2,1-c][1,4]oxazin-6-yl)methoxy)-5,6-dihydro-4H-[1,4]oxazepino[5,6,7-de]quinazolin-9-yl)-4-methyl-5-(trifluoromethyl)pyridin-2-amine] | 2.5 | 6300 | 0.087 | 0.106 | – | –
